Test: in vitro
Conditions: human, hela cells, % viability

c1cc2c(cc1CNc1nnn[nH]1)OCO2 [CBK018783]
viability at 28.5 h, 10 µM: 91.5%

CN(C)CCN(CC#Cc1ccccc1)CC#Cc1ccccc1 [CBK265035C]
viability at 28.5 h, 10 µM: 116%

Cc1cc(NC(=O)CSc2nnc3ccc(-c4ccccc4)nn23)no1 [CBK287679]
viability at 28.5 h, 10 µM: 108%

C=CCNC(=O)N[C@H]1[C@H](O)[C@@H](N(CC)CC)[C@@H]2OC[C@H]1O2 [CBK288817]
viability at 28.5 h, 10 µM: 91.1%

CCN(CC)CCO/N=C1\CC2(CCCCC2)c2ccccc21 [CBK013325]
viability at 28.5 h, 10 µM: 101%

COc1nc2ccccc2nc1CCC(=O)NC(C)c1ccccc1 (stereo not shown) [CBK270065]
viability at 28.5 h, 10 µM: 100%

O=C(CSc1ncccn1)Nc1sc2c(c1C(=O)Nc1ccccc1)CCCC2 [CBK265939]
viability at 28.5 h, 10 µM: 93%

CC(C)c1cccc2c1OC(C(C)C)C(=O)N2 (stereo not shown) [CBK009286]
viability at 28.5 h, 10 µM: 85.2%

Nc1nc2c(sc(=O)n2[C@@H]2O[C@H](CO)[C@H](O)C2O)c(=O)[nH]1 (stereo partly shown) [CBK201286]
viability at 28.5 h, 10 µM: 96%

CC1CCc2c(sc3ncnc(OCC(=O)N4CCCCC4)c23)C1 (stereo not shown) [CBK304979]
viability at 28.5 h, 10 µM: 87.5%

COc1cc(/C=C(/C#N)c2ccc(C(=O)O)cc2)cc(Br)c1OCC(=O)O [CBK268956]
viability at 28.5 h, 10 µM: 92.3%

Cc1cnc(CNS(=O)(=O)c2ccc(C(C)C)cc2)cn1 [CBK044615]
viability at 28.5 h, 10 µM: 118%

COc1cc(-c2cc(N3CCN(CCN4CCCC4)CC3)ncn2)cc(OC)c1OC [CBK037841]
viability at 28.5 h, 10 µM: 102%

COc1ccc(S(=O)(=O)N(C)CC(=O)Nc2ccc(C(N)=O)cc2)cc1C [CBK267278]
viability at 28.5 h, 10 µM: 88%

Cc1nn(-c2ccccc2)c2sncc12 [CBK006869]
viability at 28.5 h, 10 µM: 109%

CN1CCN(c2nc(NCCNc3ccc([N+](=O)[O-])cc3)c3ccccc3n2)CC1 [CBK266949]
viability at 28.5 h, 10 µM: 77.5%

O=[N+]([O-])c1ccccc1CN1CCN(C/C=C/c2ccccc2)CC1 [CBK261518]
viability at 28.5 h, 10 µM: 87.1%

CC(C)(C)c1csc(Nc2nc3cc4c(cc3s2)OCO4)n1 [CBK287491]
viability at 28.5 h, 10 µM: 93.9%

Nc1ncn(Cc2ccccc2)c2nc(SCc3ccccc3)nc1-2 [CBK025744]
viability at 28.5 h, 10 µM: 106%

O=C(COc1ccc(S(=O)(=O)N2CCOCC2)cc1)NCc1ccco1 [CBK268377]
viability at 28.5 h, 10 µM: 108%

O=C(/C=C/c1ccc(Br)cc1)N1CCN(Cc2ccc3c(c2)OCO3)CC1 [CBK074434]
viability at 28.5 h, 10 µM: 91.5%

Cc1no[n+]([O-])c1COc1cccc(/C=C2\N=C(c3ccccc3)OC2=O)c1 [CBK263454]
viability at 28.5 h, 10 µM: 96.3%

O=[N+]([O-])c1ccc(CN2CCC(Oc3nccnc3OCCN3CCOCC3)CC2)cc1 [CBK082923T]
viability at 28.5 h, 10 µM: 91%

COc1cccc(C(=O)N2CCC(Cc3cccc(-c4cccs4)c3)(C(N)=O)CC2)c1 [CBK285781]
viability at 28.5 h, 10 µM: 97.8%

O=C(NC(c1ccccn1)c1cccs1)C1CCN(S(=O)(=O)c2ccc(C(F)(F)F)cc2)CC1 (stereo not shown) [CBK060153]
viability at 28.5 h, 10 µM: 92.4%

COc1ccc([C@@]23CC[C@@H](NC(=O)Nc4ccc(C)c(F)c4F)C[C@@H]2N(C)CC3)cc1OC [CBK073686T]
viability at 28.5 h, 10 µM: 87.3%

Cc1c(Nc2cnn(C34CC5CC(CC(CC(=O)O)(C5)C3)C4)c(=O)c2Cl)c(=O)n(-c2ccccc2)n1C [CBK268707]
viability at 28.5 h, 10 µM: 89%

CN(C)C(=O)CN1CC[C@@H](c2ccccc2)[C@H](O)C1 [CBK283979]
viability at 28.5 h, 10 µM: 83%

CN(C)CCN(C)c1cc(-c2cccc(-c3ccccc3)c2)ncn1 [CBK037763]
viability at 28.5 h, 10 µM: 99.4%

O=C(Nc1ccc(F)cc1)Nc1cccnc1Cl [CBK058509]
viability at 28.5 h, 10 µM: 90.4%

COc1cc(C(=O)N/C(=C\c2ccc(O)cc2)C(=O)O)cc(OC)c1OC [CBK262607]
viability at 28.5 h, 10 µM: 86.2%

COc1ccccc1N1CCN(C(=O)C2CC2C)CC1 (stereo not shown) [CBK091496]
viability at 28.5 h, 10 µM: 108%

NC(=O)CN1C(=O)[C@@H]2CCCN2C(=O)c2ccccc21 [CBK283090]
viability at 28.5 h, 10 µM: 110%

C(=N\N1CCOCC1)/c1cccs1 [CBK027942]
viability at 28.5 h, 10 µM: 96.9%

NC(=O)c1ccccc1NC(=O)C1CCC(C(=O)Nc2ccccc2C(N)=O)CC1 (stereo not shown) [CBK268716]
viability at 28.5 h, 10 µM: 87.1%

N#Cc1nc(-c2ccccc2)oc1NCCN1CCCCC1 [CBK264573]
viability at 28.5 h, 10 µM: 93.5%

CCOC(=O)c1ccccc1NC(=O)CCC(=O)O [CBK261631]
viability at 28.5 h, 10 µM: 93.5%

CCCc1c(C)nc2c(OC)cccc2c1SCCC(=O)O [CBK263890]
viability at 28.5 h, 10 µM: 122%

O=C(O)C1CC1(C(=O)O)C(=O)O (stereo not shown) [CBK261009]
viability at 28.5 h, 10 µM: 103%

CN(CCc1cn[nH]c1)C(=O)CCc1ccc(Cl)cc1 [CBK283183]
viability at 28.5 h, 10 µM: 91.1%

Cn1nc(C(=O)NCc2ccccc2)cc1C(=O)NCc1ccccc1 [CBK270004]
viability at 28.5 h, 10 µM: 92%

O=C(Nc1cccc2cccnc12)c1sc2ccccc2c1Cl [CBK262132]
viability at 28.5 h, 10 µM: 98.8%

O=C(O)CCn1c2ccccc2c2cc(I)ccc21 [CBK262578]
viability at 28.5 h, 10 µM: 97.5%

CCCCc1cc(=O)oc2cc(OC(C)C(=O)O)c(Cl)cc12 (stereo not shown) [CBK265166]
viability at 28.5 h, 10 µM: 95.7%

O=C1c2cccc3cccc(c23)C(=O)N1CCN1CCN(CC(O)COc2ccccc2)CC1 (stereo not shown) [CBK266255]
viability at 28.5 h, 10 µM: 97.4%

CCN(CC)CCSc1nc2sc3c(c2c(=O)n1-c1ccccc1)CC(C)(C)OC3 [CBK263728]
viability at 28.5 h, 10 µM: 96.6%

COc1ncccc1C(=O)N1CCc2ccccc21 [CBK200402]
viability at 28.5 h, 10 µM: 91.5%

CC(=O)OC(Cn1c2ccccc2c2ccccc21)Cn1c2ccccc2c2ccccc21 [CBK262307]
viability at 28.5 h, 10 µM: 104%

Nc1nc(=O)c2cnc3c(F)cccc3c2s1 [CBK291249]
viability at 28.5 h, 10 µM: 91.1%

Cc1ccccc1NS(=O)(=O)c1cc(CN2C[C@@H](C)NC[C@@H]2C)c2occc2c1 [CBK103579T]
viability at 28.5 h, 10 µM: 102%

CSc1ccc(C(NC(=O)OC(C)(C)C)C(=O)O)cc1 (stereo not shown) [CBK287196]
viability at 28.5 h, 10 µM: 80.4%

COc1ccc(C(=O)Nc2cc3ccccc3c(N3CCNCC3)n2)cc1 [CBK036344T]
viability at 28.5 h, 10 µM: 91.2%

CC1(C)CC(=O)c2sc(NC(=O)Nc3ccccc3)nc2C1 [CBK287319]
viability at 28.5 h, 10 µM: 104%

Cc1cc2oc(C(=O)Nc3sc4c(c3C#N)CCCC4)c(C)c2cc1C [CBK266301]
viability at 28.5 h, 10 µM: 103%

CC(C)S(=O)(=O)n1ccn(-c2ccc3c(c2)OCO3)c1=O [CBK106630]
viability at 28.5 h, 10 µM: 90.9%

CC(Oc1ccc(Cl)cc1Cl)C(=O)O/N=C(\N)c1ccccn1 (stereo not shown) [CBK264673]
viability at 28.5 h, 10 µM: 100%

CC(=O)Nc1ccc2nc(Nc3nc4c(F)cccc4s3)sc2c1 [CBK287475]
viability at 28.5 h, 10 µM: 89.8%

O=C(NC(=S)Nc1cccc(-c2nc3cc(Cl)ccc3o2)c1)c1ccccc1Br [CBK263973]
viability at 28.5 h, 10 µM: 95.8%

CN1CCN(C(=O)c2ccsc2NS(=O)(=O)Cc2ccccc2)CC1 [CBK042266]
viability at 28.5 h, 10 µM: 97.5%

FC(F)(F)c1cccnc1OCCCc1ccncc1 [CBK115782]
viability at 28.5 h, 10 µM: 93.9%

O=C(NCc1ccncc1)c1csc2c(C(F)(F)F)cc(N3CCN(Cc4ccccc4)CC3)nc12 [CBK034294T]
viability at 28.5 h, 10 µM: 98.6%

O=c1cc(N2CCCCC2)cnn1Cc1nccs1 [CBK307678]
viability at 28.5 h, 10 µM: 87.4%

Cc1cc(C)nc(N2CCC(CC(=O)NCC(C)N3CCCCCC3)CC2)n1 (stereo not shown) [CBK286029]
viability at 28.5 h, 10 µM: 94.9%

C=CCn1c(SCC(=O)N2CCN(c3ccccc3)CC2)nnc1-c1ccc(N)cc1 [CBK267956]
viability at 28.5 h, 10 µM: 99.8%

From article PMC12040169 (PLOS Biology, 2025)
